Laboratory results: PubChem BioAssay AID2010 (Broad Institute, 2009)
Results filed as inconclusive are left out. Activity calls are given as the source filed them.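 How the source made its calls: active means fitted IC50 within a set limit above the top dose, meaning light loss from cell killing; inconclusive means flat curve with 30 to 70% effect, or poor fit; inactive means IC50 beyond that set limit.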

Each compound was assayed on NIH3T3 viability, ATP luminescence (CellTiter-Glo), 90 h (assay: cytotoxicity toward NIH3T3 fibroblasts, dose response, counter-screen, cell-based, ATP luminescence, mouse fibroblasts (AID 2010)).

Structure (SMILES) | IC50
Cc1ccccc1OCc1n(CC(=O)OC2CC(C)CCC2C(C)C)c2ccccc2[n+]1C (stereo not given) | > 6 µM (inactive)
O=[N+]([O-])C(/C=C(\Cl)[N+](=O)[O-])=C(N1CCCCC1)N1CCCCC1 | > 6 µM (inactive)
O=[N+]([O-])C(/C=C(/Cl)[N+](=O)[O-])=C(N1CCCCC1)N1CCCCC1 | > 6 µM (inactive)
CC(C)N1C(=O)/C(=C\c2nc3ccccc3c(=O)n2-c2ccccc2)c2ccccc21 | > 6 µM (inactive)
C#CCOCCOCCOCCNc1nc(N2CCN(C(=O)CCCCCCCCCCNC(=O)Cn3cc(C[C@@H](C)O)nn3)CC2)nc(N2CCN(C(=O)CCCCCCCCCCNC(=O)[C@H](CCCN=C(N)N)n3cc(C[C@@H](C)CC)nn3)CC2)n1 | > 6 µM (inactive)
